Assay results published in PMC11643962, “Exploring 4,7-Disubstituted Pyrimido[4,5-d]pyrimidines as Antiviral and Anticancer Agents” (Molecules, 2024).

What was measured:
HCoV-229E = assay: Antiviral CPE reduction assay, HCoV-229E in HEL299 cells; format: cell-based, human coronavirus 229E; conditions: Human coronavirus 229E, HEL 299, MTS, mean ± SD of two or three independent experiments
HCoV-OC43 = assay: Antiviral CPE reduction assay, HCoV-OC43 in HEL299 cells; format: cell-based, human coronavirus OC43; conditions: Betacoronavirus 1, OC43, HEL 299, MTS, mean ± SD of two or three independent experiments
HCoV-NL63 = assay: Antiviral CPE reduction assay, HCoV-NL63 in Hep3B cells; format: cell-based, human coronavirus NL63; conditions: Human coronavirus NL63, MTS, mean ± SD of two or three independent experiments
[1] = tested on: influenza A/H1N1 (A/Ned/378/05); assay: Antiviral CPE reduction assay, influenza A/H1N1 in MDCK cells; format: cell-based, influenza A virus; conditions: Influenza A virus, H1N1; MDCK cells; CPE reduction, MTS; mean ± SD of two or three independent experiments; read-out: Antiviral Activity (EC50) Influenza H1N1
[2] = tested on: influenza A/H3N2 (A/HK/7/87); assay: Antiviral CPE reduction assay, influenza A/H3N2 in MDCK cells; format: cell-based, influenza A virus; conditions: Influenza A virus, H3N2; MDCK cells; CPE reduction, MTS; mean ± SD of two or three independent experiments; read-out: Antiviral Activity (EC50) Influenza H3N2
[3] = tested on: influenza B (B/Ned/537/05); assay: Antiviral CPE reduction assay, influenza B in MDCK cells; format: cell-based, influenza B virus; conditions: Influenza B virus, MDCK, read-out: Antiviral Activity (EC50) Influenza B
[4] = tested on: respiratory syncytial virus A (RSV A Long); assay: Antiviral CPE reduction assay, RSV A Long in Hep2 cells; format: cell-based; conditions: human respiratory syncytial virus, HEp-2; Hep2 cells; CPE reduction, MTS; mean ± SD of two or three independent experiments; read-out: Antiviral Activity (EC50) RSV A Long
[5] = tested on: herpes simplex virus-1 (HSV-1 KOS); assay: Antiviral CPE reduction assay, HSV-1 KOS in HEL299 cells; format: cell-based; conditions: Human alphaherpesvirus 1, HEL 299, MTS, mean ± SD, no unit printed on the supplement page (Table 2 of the same screen is in µM)
[6] = tested on: yellow fever virus (YFV 17D); assay: microbe, parasite or virus in culture; format: cell-based; conditions: Yellow fever virus, Vero C1008, read-out: Antiviral activity (EC50) YFV 17D
Zika virus (ZikV mr766) = assay: Antiviral CPE reduction assay, Zika virus mr766 in VeroE6 cells; format: cell-based; conditions: Zika virus, Vero C1008, MTS, mean ± SD, no unit printed on the supplement page (Table 2 of the same screen is in µM)
in vitro [7] = conditions: human
in vitro [8] = conditions: human; remark: listed apart in the source
in vitro [9] = conditions: dog
in vitro [10] = conditions: human; remark: listed apart in the source
in vitro [11] = conditions: African green monkey
[12] = tested on: HL-60 (acute myeloid leukemia); assay: MTS proliferation assay, HL-60; conditions: Homo sapiens, HL-60, 72 h, read-out: Anti-Proliferative Activity (IC50) HL-60
[13] = tested on: K-562 (chronic myeloid leukemia); assay: MTS proliferation assay, K-562; conditions: Homo sapiens, K562, 72 h, read-out: Anti-Proliferative Activity (IC50) K-562
[14] = tested on: Z-138 (non-Hodgkin lymphoma); assay: MTS proliferation assay, Z-138; conditions: Homo sapiens, Z-138, 72 h, read-out: Anti-Proliferative Activity (IC50) Z-138
LN-229 (glioblastoma) = assay: MTS proliferation assay, LN-229; conditions: Homo sapiens, LN-229, 72 h, read-out: Anti-Proliferative Activity (IC50) LN-229
[15] = tested on: DND-41 (acute lymphoblastic leukemia); assay: MTS proliferation assay, DND-41; conditions: Homo sapiens, DND41, 72 h, read-out: Anti-Proliferative Activity (IC50) DND-41
[16] = tested on: Capan-1 (pancreatic adenocarcinoma); assay: MTS proliferation assay, Capan-1; conditions: Homo sapiens, CAPAN-1, 72 h, read-out: Anti-Proliferative Activity (IC50) Capan-1
[17] = tested on: HCT-116 (colorectal carcinoma); assay: MTS proliferation assay, HCT-116; conditions: Homo sapiens, HCT-116, 72 h, read-out: Anti-Proliferative Activity (IC50) HCT-116
[18] = tested on: NCI-H460 (lung carcinoma); assay: MTS proliferation assay, NCI-H460; conditions: Homo sapiens, NCI-H460, 72 h, read-out: Anti-Proliferative Activity (IC50) NCI-H460

Row | Structure (SMILES) | EC50 (HCoV-229E) [µM] | EC50 (HCoV-OC43) [µM] | EC50 (HCoV-NL63) [µM] | EC50 [1] [µM] | EC50 [2] [µM] | EC50 [3] [µM] | EC50 [4] [µM] | EC50 [5] [µM] | EC50 [6] [µM] | EC50 (Zika virus (ZikV mr766)) [µM] | CC50 (in vitro [9]) [µM] | CC50 (in vitro [11]) [µM] | IC50 [12] [µM] | IC50 [13] [µM] | IC50 [14] [µM] | IC50 (LN-229 (glioblastoma)) [µM] | IC50 [15] [µM] | IC50 [16] [µM] | IC50 [17] [µM] | IC50 [18] [µM] | other results
1 | CN(C)CCNc1ncc2c(Nc3cccc4c3CCCC4)ncnc2n1 [Compound 7a, N^2-[2-(Dimethylamino)ethyl]-N^5-(5,6,7,8-tetrahydronaphthalen-1-yl)pyrimido[4,5-d]pyrimidine-2,5-diamine] | 15.8 ± 0.9 | 27.7 ± 0.6 | > 50 | > 50 | > 50 | > 50 | > 50 | > 50 | > 50 | > 50 | > 50 | > 50 | > 100 | 87 ± 1.3 | 58.9 ± 1.8 | > 100 | 57.9 ± 2 | > 100 | > 100 | > 100 | melting point: 176.3 °C; CC50 (in vitro [7]): > 50 µM; CC50 (in vitro [8]): > 50 µM; CC50 (in vitro [10]): > 50 µM
2 | CCN(CC)CCNc1ncc2c(Nc3cccc4c3CCCC4)ncnc2n1 [Compound 7b, N^2-[2-(Diethylamino)ethyl]-N^5-(5,6,7,8-tetrahydronaphthalen-1-yl)pyrimido[4,5-d]pyrimidine-2,5-diamine] | 11 ± 2.7 | 34.7 ± 16.7 | > 50 | > 50 | > 50 | > 50 | > 50 | > 50 | > 50 | > 50 | > 50 | > 50 | > 100 | > 100 | 62.6 ± 0.8 | > 100 | 67.1 ± 4.7 | > 100 | > 100 | > 100 | melting point: 181.3 °C; CC50 (in vitro [7]): > 50 µM; CC50 (in vitro [8]): > 50 µM; CC50 (in vitro [10]): > 50 µM
3 | CN(C)CCNc1ncc2c(Nc3cccc4c3CCC4)ncnc2n1 [Compound 7e, N^5-(2,3-dihydro-1H-inden-4-yl)-N^2-(2-(dimethylamino)ethyl)pyrimido[4,5-d]pyrimidine-2,5-diamine] | 20.6 ± 0.3 | > 50 | > 50 | > 50 | > 50 | > 50 | > 50 | > 50 | > 50 | > 50 | > 50 | > 50 | > 100 | > 100 | > 100 | > 100 | > 100 | > 100 | > 100 | > 100 | melting point: 180.9 °C; CC50 (in vitro [7]): > 50 µM; CC50 (in vitro [8]): > 50 µM; CC50 (in vitro [10]): > 50 µM
4 | C#Cc1cccc(Nc2ncnc3nc(NCCN(CC)CC)ncc23)c1 [Compound 7i, N^2-[2-(diethylamino)ethyl]-N^5-(3-ethynylphenyl)pyrimido[4,5-d]pyrimidine-2,5-diamine] | 19.3 ± 6.6 | ≥ 39.8 | > 50 | > 50 | > 50 | > 50 | > 50 | > 50 | > 50 | > 50 | > 50 | > 50 | > 100 | 51.8 ± 3.5 | 62.1 ± 0.8 | > 100 | 62.6 ± 0.1 | > 100 | > 100 | > 100 | –
5 | C#Cc1cccc(Nc2ncnc3cc(OCCOC)c(OCCOC)cc23)c1 [Erlotinib, erlotinib, reference compound] | 22.5 ± 10 | > 100 | > 100 | > 100 | > 100 | > 100 | > 100 | > 100 | > 100 | > 100 | > 100 | > 100 | 10.7 ± 0.1 | > 100 | > 100 | > 100 | > 100 | 18.6 ± 1.1 | > 100 | > 100 | CC50 (in vitro [7]): > 100 µM; CC50 (in vitro [8]): > 100 µM; CC50 (in vitro [10]): > 100 µM
